The values that follow come from US11801232B2, “Targeting of ARID1A-deficient cancers by inhibiting de novo pyrimidine synthesis pathway” (YALE UNIVERSITY, priority 2019, dated 2023).

Where two headings read alike, the source gives them in different places.

The subject of data set [1] is ES2 cells. Put plainly: Cytotoxicity (SRB) assay with CalcuSyn combination analysis. It is filed as cell-based. The settings on record: Homo sapiens, ES2 parental, read-out: Dm. As for the experimental part: Cytotoxicity assay. Cells were seeded in 96-well plates, with 2000 cells in 100 μL/well, and cultured for 24 h. The cells were treated with serial dilutions of drugs or without drug for an additional 72 h. Cell number was determined using a sulforhodamine B (SRB) assay, as previously described^23. Briefly, cells were fixed with 20% trichloroacetic acid (TCA), air-dried, and stained with 0.4% SRB dissolved in 1% acetic acid. After washing, protein-bound dye was solubilized with 10 mM unbuffered Tris-base solution (pH 10.5) and detected at 510 nm using a microplate reader. Percentage of cell-growth was calculated using the following formula: % cell growth=[(Absorbance sample)/(Absorbance untreated)]×100 […] Datasets from at least three independent experiments were combined, and each table cell contains the mean value±SD. SCR, ES2-shScrambled. N/A, not applicable. Statistical analysis was carried out by one-way ANOVA with Bonferroni's post-hoc test, and differences were considered significant at **P<0.01 and ***P<0.001 as compared to the ES2 parental group with the same drug treatment. […] CIwt value was calculated using the formula: […] Datasets from at least three independent experiments were combined, and each table cell contains the mean value±SD. Teri, teriflunomide. SCR, ES2-shScrambled. N/A, not applicable. Statistical analysis was carried out by one-way ANOVA with Bonferroni's post-hoc test, and differences were considered significant at ***P<0.001 as compared to the ES2 parental group with the same drug treatment.

Data set [2] concerns ES2-shARID1A xenografts. The settings on record: mouse, in vivo, ip, 4 mg/kg. As for the experimental part: Animal Model. All animal procedures were conducted in accordance with a protocol approved by the Institutional Animal Care and Use Committee at Yale University.
Three mouse experiments were performed: (i) to assess an effect of teriflunomide on ES2 cells in vivo, (ii) to assess an effect of teriflunomide on SKOV3 cells in vivo, and (iii) to assess a combination effect of teriflunomide and AZD6738 on ES2-shARID1A cells in vivo. All experiments were performed using subcutaneous cell-xenograft models generated by injecting cells into the flanks of 6-week-old female athymic NCr-nu/nu mice (Charles River Laboratories).
Animal-human dose translation was calculated as previously described^24. Tumor volumes were measured every other day by caliper to determine tumor volume using the formula (length/2)×(width^2). […] Experiments were terminated when mean tumor volume of a vehicle ES2-shCon group reached 1000 mm^3. Tumor xenografts were excised at time of euthanasia. Representative samples were flash-frozen in liquid nitrogen for subsequent protein expression analysis by immunoblotting, as well as being formalin-fixed paraffin-embedded (alternatively, FFPE) for subsequent hematoxylin and eosin staining and immunohistochemical analysis. FFPE sections were reviewed by a pathologist (alternatively, P.H.), and cellular necrosis was quantified as % cross-sectional area of bisected tumor xenografts. […]

Data set [3] concerns P-CHK1 Ser345. Put plainly: Immunoblot of phosphorylated CHK1 in ES2 cell lysates. It is filed as cell-based, human. The settings on record: ES2 cells; teriflunomide 15 μM, AZD6738 1.5 μM. As for the experimental part:
(§1) Immunoblot Analysis and Co-Immunoprecipitation Assay. For immunoblotting experiments, cells were lysed in BC200 lysis buffer [20 mM Tris-HCl (pH 7.5), 200 mM NaCl, 1 mM EDTA, 0.2% Nonidet P-40 (NP-40), freshly added complete protease inhibitor cocktail (from Roche), and PhosSTOP phosphatase inhibitor (from Roche)] or in boiling SDS lysis buffer [1% SDS and 10 mM Tris-CI (pH 7.5)], as previously described^21. Protein concentrations were quantified using a modified Lowry assay, and equal protein amounts were loaded onto a 10% SDS-PAGE gel and separated by gel electrophoresis, followed by transfer to a nitrocellulose membrane. The nitrocellulose membrane was stained with Ponceau S to confirm equal protein loading and then blocked in 2% BSA in Tris-buffered saline with 0.1% Tween-20 (tris buffered saline with tween, or TBST). Primary antibody incubation was done for 2 h at room temperature or, for phospho-specific antibodies, overnight at 4° C. An HRP-conjugated secondary antibody was used, followed by detection using enhanced chemiluminescence substrate (from Pierce). Autoradiograph images were scanned and saved as unmodified TIFF images, and densitometry analysis was done with ImageJ (from NIH) software.

In data set [4] the test system is γ-H2AX. Nature of the data set: Immunoblot and immunofluorescence of γ-H2AX in ES2 cells. It is filed as cell-based, human. Particulars: ARID1A-knockdown ES2 cells; teriflunomide 15 μM, AZD6738 1.5 μM, VX-970 0.075 μM; 24-72 h. As for the experimental part:
as §1
Immunofluorescence. […] Images of cells were acquired using a BZ-X710 fluorescence microscope (from KEYENCE) and analyzed using ImageJ (from NIH).
In general terms: Immunoblotting shows a protein as a band on a membrane.

Setting [5] is: ES-2, Table 1, single drug, median effect.

Take `C/C(O)=C(\C#N)C(=O)Nc1ccc(C(F)(F)F)cc1` [Teriflunomide, teriflunomide]: the IC50 in data set [1] (setting [5]) was 26.4 ± 2.18 µM; in data set [1] (ES-2, Table 2, teriflunomide alone), 29.1 ± 0.54 µM. The “Weight loss or toxicity in mice” value in data set [2] was “no significant weight loss or toxicity”.

For the molecule `C[C@@H]1COCCN1c1cc(C2([S@](C)(=N)=O)CC2)nc(-c2cc[nH]c3nccc2-3)n1` [AZD6738], in data set [1] (setting [5]), the IC50 was 1.23 ± 0.16 µM. In addition, the “Phosphorylation of CHK1 on serine 345” value in data set [3] is recorded as “decreased levels”. Also, the γ-H2AX protein levels entry in data set [4] is “increased”.
